The values below come from patent US7902181B2, “Compounds 010” (AstraZeneca AB, priority 2007, dated 2011).

Counter-ions that a name gives are not always drawn.

Sequence of Recombinant Human (rh) DPP1 (P53634 25-463): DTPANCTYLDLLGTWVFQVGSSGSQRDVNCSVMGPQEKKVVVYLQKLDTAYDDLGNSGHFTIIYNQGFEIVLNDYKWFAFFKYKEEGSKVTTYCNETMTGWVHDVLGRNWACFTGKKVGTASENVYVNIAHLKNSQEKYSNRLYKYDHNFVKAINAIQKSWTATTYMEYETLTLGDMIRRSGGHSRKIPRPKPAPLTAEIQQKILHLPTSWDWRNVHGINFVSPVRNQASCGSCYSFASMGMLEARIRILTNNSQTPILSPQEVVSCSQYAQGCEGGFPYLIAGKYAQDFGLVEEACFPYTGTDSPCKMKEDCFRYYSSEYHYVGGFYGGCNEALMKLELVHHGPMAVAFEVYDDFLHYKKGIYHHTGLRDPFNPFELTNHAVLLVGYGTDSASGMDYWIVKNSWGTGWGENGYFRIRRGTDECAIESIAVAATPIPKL

The test addresses Recombinant Human (rh) DPP1 (Homo sapiens, UniProt P53634). As to the kind of experiment: Fluorescence Assay for Recombinant Human (rh) DPP1. It is filed as biochemical. Particulars: rhDPP1; substrate H-Gly-Arg-AMC; pH5.0; 30 min pre-incubation, 60 min reaction at 22° C.; highest concentration 10 μM; read-out: DPP1 activity, pIC50 (converted). The gist of the method:
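Release of AMC from 100 μM H-Gly-Arg-AMC by rhDPP1 ([…]) in 25 mM piperazine pH 5.0, 50 mM NaCl, 5 mM DTT, 0.01% Triton X-100, 1% DMSO, 22 °C. Inhibitors (12-point half-log, top 10 μM) preincubated 30 min, reaction 60 min, fluorescence at 350/450 nm; pIC50 from 4-parameter logistic fit.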
Consider `N#Cc1ccc(-c2ccc([C@H]3C[C@@]3(C#N)NC(=O)[C@@H]3CCCCN3)cc2)cc1` [Example 103, (S)-N-((1R,2R)-1-Cyano-2-(4′-cyanobiphenyl-4-yl)cyclopropyl)piperidine-2-carboxamide Trifluoroacetate], for which the IC50 was 158 nM. Turning to `CN1CCN(c2ccc(-c3ccc(C[C@@H](C#N)NC(=O)[C@@H]4CCCCN4)cc3)cn2)CC1` [Example 47, (2S)-N-[(1S)-1-Cyano-2-[4-[6-(4-methylpiperazin-1-yl)pyridin-3-yl]phenyl]ethyl]piperidine-2-carboxamide trifluoroacetate], the IC50 is 1260 nM. Turning to `N#C[C@H](Cc1ccc(-c2ccc3c(c2)CNS3(=O)=O)cc1)NC(=O)[C@@H]1CCCCN1` [Example 67, (2S)-N-{(1S)-1-cyano-2-[4-(1,1-dioxido-2,3-dihydro-1,2-benzisothiazol-5-yl)phenyl]ethyl} piperidine-2-carboxamide], the IC50 was 10 nM. With `N#C[C@H](Cc1ccc(-c2cccc(C(=O)Nc3nccs3)c2)cc1)NC(=O)[C@@H]1CCCCN1` [Example 84, (S)-N-((S)-1-Cyano-2-(3′-(thiazol-2-ylcarbamoyl)biphenyl-4-yl)ethyl)piperidine-2-carboxamide Trifluoroacetate] the figure was 25.1 nM; with `N#C[C@H](Cc1ccc(-c2ccccc2O[C@@H]2CCNC2)cc1)NC(=O)[C@@H]1CCCCN1` [Example 13, (S)-N-((S)-1-Cyano-2-(2′-((R)-pyrrolidin-3-yloxy)biphenyl-4-yl)ethyl)piperidine-2-carboxamide Ditrifluoroacetate], 794 nM; with `CN(C)C(=O)c1cccc(-c2ccc(C[C@@H](C#N)NC(=O)[C@@H]3CCCCN3)cc2)c1` [Example 42, (2S)-N-[(1S)-1-Cyano-2-[4-[3-(dimethylcarbamoyl)phe-nyl]phenyl]ethyl]piperi-dine-2-carboxamide trifluoroacetate], 501 nM. With `N#C[C@H](Cc1ccc(-c2cccc(S(=O)(=O)N3CCCC3)c2)cc1)NC(=O)[C@@H]1CCCCN1` [Example 88, (S)-N-((S)-1-Cyano-2-(3′-(pyrrolidin-1-ylsulfonyl)biphenyl-4-yl)ethyl)piperidine-2-carboxamide Trifluoroacetate] the figure was 63.1 nM; with `N#C[C@H](Cc1ccc(-c2ccc3c(c2)OCO3)cc1)NC(=O)[C@@H]1CCCCN1` [Example 28, (2S)-N-[(1S)-2-(4-Benzo[1,3]dioxol-5-ylphenyl)-1-cyano-ethyl]piperidine-2-carboxamide trifluoroacetate], 100 nM.

For `N#Cc1ccc(-c2ccc(C[C@@H](C#N)NC(=O)[C@@H]3CCCCN3)cc2)cn1` [Example 53, (S)-N-((S)-1-Cyano-2-(4-(6-cyanopyridin-3-yl)phenyl)ethyl)piperidine-2-carboxamide], the IC50 is 31.6 nM.

For the molecule `N#C[C@H](Cc1ccc(-c2cnn(Cc3ccccc3)c2)cc1)NC(=O)[C@@H]1CCCCN1` [Example 4, (S)-N-((S)-2-(4-(1-Benzyl-1H-pyrazol-4-yl)phenyl)-1-cyanoethyl)-piperidine-2-carboxamide Trifluoroacetate], the IC50 is 31.6 nM. On to `N#C[C@H](Cc1ccc(-c2ccccc2OCc2ccccc2)cc1)NC(=O)[C@@H]1CCCCN1` [Example 51, (2S)-N-[(1S)-1-Cyano-2-[4-(2-phenylmethoxyphenyl)phenyl]ethyl]piperidine-2-carboxamide trifluoroacetate], for which the IC50 was 2000 nM.

On to `N#C[C@H](Cc1ccc(-c2cnoc2)cc1)NC(=O)[C@@H]1CCCCN1` [Example 21, (2S)-N-[(1S)-1-Cyano-2-(4-1,2-oxazol-4-ylphenyl)ethyl]piperidine-2-carboxamide trifluoroacetate], for which the IC50 is 50.1 nM. With `N#C[C@H](Cc1ccc(-c2ccc(CCCO)cc2)cc1)NC(=O)[C@@H]1CCCCN1` [Example 27, (2S)-N-[(1S)-1-Cyano-2-[4-[4-(3-hydroxypropyl)phenyl]phenyl]ethyl]piperidine-2-carboxamide trifluoroacetate] the figure was 63.1 nM.
